Target: T1, human GluR2 flip (unedited) AMPA receptor subunit (Homo sapiens, UniProt P42262)
T1 construct: expressed in transfected cells
Assay: Calcium influx fluorescence assay (FLUO4, potentiation of glutamate response)
Type: cell-based
Settings: Assay a); HEK 293 cells expressing human GluR2 flip (unedited); 100 μM glutamate final; peak fluorescence
Protocol: The ability of the compounds of the invention to potentiate glutamate receptor-mediated response were determined a) by using fluorescent calcium-indicator dyes such as FLUO4 and b) by measuring glutamate-evoked current recorded from human GluR2 flip unedited HEK293 cells.
a) Calcium Influx Fluorescence Assay
384 well plates were prepared containing confluent monolayer of HEK 293 cells either stably expressing or transiently transfected with human GluR2 flip (unedited) AMPA receptor subunit. These cells form functional homotetrameric AMPA receptors. […]
The cell plate was then transferred into a fluorescence imaging plate based reader [such as the FLIPR384 (Molecular Devices)]. A baseline fluorescence reading was taken over a 10 to 240 second period, and then 10 μL from each plate containing a compound of the invention made up in standard buffer solution (in a concentration range from 100 μM to 10 pM) was added (to give a final concentration in the range 30 μM to 3 pM). The fluorescence was read over 5 minute period. […] The fluoresecence was then read over a 4 minute period. The activities of the compounds of the invention and reference compounds were determined by measuring peak fluorescence after the last addition. The activity can also be expressed relative to the fluorescence increase induced by cyclothiazide at their maximum response (i.e. greater than 30 μM).

T1 sequence (P42262 25-883 isoform P42262-2 limits assumed): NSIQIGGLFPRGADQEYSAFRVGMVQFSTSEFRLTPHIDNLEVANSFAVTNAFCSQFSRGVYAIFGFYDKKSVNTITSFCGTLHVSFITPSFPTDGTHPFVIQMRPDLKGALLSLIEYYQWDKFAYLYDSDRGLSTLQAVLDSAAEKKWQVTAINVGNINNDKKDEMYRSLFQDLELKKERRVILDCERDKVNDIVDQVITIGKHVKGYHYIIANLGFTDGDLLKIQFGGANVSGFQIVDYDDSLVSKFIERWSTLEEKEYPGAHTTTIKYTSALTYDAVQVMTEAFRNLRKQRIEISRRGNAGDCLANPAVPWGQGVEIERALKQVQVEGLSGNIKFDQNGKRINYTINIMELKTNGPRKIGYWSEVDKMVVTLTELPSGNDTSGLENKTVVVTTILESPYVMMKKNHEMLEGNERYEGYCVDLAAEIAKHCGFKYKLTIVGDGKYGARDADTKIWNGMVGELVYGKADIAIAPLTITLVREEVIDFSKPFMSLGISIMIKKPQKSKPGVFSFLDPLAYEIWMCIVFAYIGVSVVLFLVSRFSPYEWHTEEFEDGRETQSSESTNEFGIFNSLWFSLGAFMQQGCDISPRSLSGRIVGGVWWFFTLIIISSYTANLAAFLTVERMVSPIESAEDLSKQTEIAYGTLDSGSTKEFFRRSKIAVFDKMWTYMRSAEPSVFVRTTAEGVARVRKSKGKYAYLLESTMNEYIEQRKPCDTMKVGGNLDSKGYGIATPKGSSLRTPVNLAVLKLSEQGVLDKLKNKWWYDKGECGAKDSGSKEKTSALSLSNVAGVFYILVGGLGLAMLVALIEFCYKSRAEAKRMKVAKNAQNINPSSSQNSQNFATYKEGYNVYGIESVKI

EC50: 3.16 µM
Structure (SMILES): CCS(=O)(=O)Nc1cccc(-c2ccc3c(c2)CC(NS(=O)(=O)C(C)C)C3)c1 (stereo not shown) [Example 6, N-(5-{3-[(ethylsulfonyl)amino]phenyl}-2,3-dihydro-1H-inden-2-yl)-2-propanesulfonamide]

Source: patent US7741351B2, “Compounds which potentiate glutamate receptor and uses thereof in medicine” (Glaxo Group Limited, priority 2004, dated 2010)
